What all share (type): cell-based
In one assay the test system is MEXF 989. Briefly: Clonogenic assay, MEXF 989. The conditions noted are these: Homo sapiens, Amelanotic melanoma, soft agar, read-out: IC50 (colony formation). As to the method:
(§1) The anticancer activity of (R)-2-amino-7-[2-(6-methoxy-pyridin-2-yl)-phenyl]-4-methyl-7,8-dihydro-6H-pyrido[4,3-d]pyrimidin-5-one is evaluated in 30 human tumor xenografts in vitro using a clonogenic assay. In this assay, human cells derived from cancer patients are evaluated for the capacity of (R)-2-amino-7-[2-(6-methoxy-pyridin-2-yl)-phenyl]-4-methyl-7,8-dihydro-6H-pyrido[4,3-d]pyrimidin-5-one to inhibit the formation of 3 dimensional colonies. […] The tumor xenografts which have never been cultured in cell culture plastic dishes are isolated from nude mice. Tumor cell suspensions are prepared and incubated in 24 well plates containing layers of soft agar. Under these conditions a special subpopulation of cells selectively grows to colonies. (R)-2-amino-7-[2-(6-methoxy-pyridin-2-yl)-phenyl]-4-methyl-7,8-dihydro-6H-pyrido[4,3-d]pyrimidin-5one is tested in 6 concentrations up to 1000 nM. The tumor test panel comprises 1 to 10 models of 12 different human tumor types, which were bladder cancer, colon, gastric, non small cell lung (adeno, squamous cell, and large cell), small cell lung, mammary, ovary, and prostate cancer, as well as leukemia, lymphoma, melanoma, and sarcoma. Antitumor effects are recorded as inhibition of colony formation in relation to untreated controls. […]

The next assay relates to PRXF DU145. Briefly: Clonogenic assay, PRXF DU145. The conditions noted are these: Homo sapiens, DU-145, Prostate, Adenocarcinoma, soft agar, read-out: IC50 (colony formation). On the procedure:
as §1

In a further assay the test system is KM12L4A. In words: Cell proliferation assay, KM12L4A (colon). The conditions noted are these: 72 hours in presence of compound. As to the method: (§2) Seventeen cancer derived cell lines are used (GTL-16, N87, H1975, A549, H69, A2780, PC3, BT474, SKBR3, MCF-7, A375, MV4;11, K562, KM12L4A, H929, OPM-2 and KMS-11) to test the effect of (R)-2-amino-7-[2-(6-methoxy-pyridin-2-yl)-phenyl]-4-methyl-7,8-dihydro-6H-pyrido[4,3-d]pyrimidin-5-one. These cell lines cover the following 9 tumor types: Gastric, Lung, Ovarian, Prostate, Breast, Melanoma, Leukemia, Colon and Multiple myeloma. After division and medium change, cells from stock culture are seeded on cell plates and cultured for about 18 hours to allow cell growth and attachment before starting the assay. Then on the first day of the assay, (R)-2-amino-7-[2-(6-methoxy-pyridin-2-yl)-phenyl]-4-methyl-7,8-dihydro-6H-pyrido[4,3-d]pyrimidin-5-one is added to the medium at various concentrations. Cells are cultured up to 72 or 96 hours and cell proliferation is determined using commercially available cell proliferation kits.
(§3) Table 1 relates to the concentration in nM of (R)-2-amino-7-[2-(6-methoxy-pyridin-2-yl)-phenyl]-4-methyl-7,8-dihydro-6H-pyrido[4,3-d]pyrimidin-5-one which inhibits cell proliferation by 50% (IC50). […]

The next assay relates to A549. In words: Cell proliferation assay, A549 (lung). The conditions noted are these: Homo sapiens, 72 hours in presence of compound. On the procedure:
as §2, §3

Another assay deals with MAXF 713. Briefly: Clonogenic assay, MAXF 713. The conditions noted are these: Homo sapiens, Breast, Adenocarcinoma, soft agar, read-out: IC50 (colony formation). As to the method: as §1
For the next assay, the system named is MAXF 857. Briefly: Clonogenic assay, MAXF 857. The following applies: Homo sapiens, Breast, Invasive ductal carcinoma, soft agar, read-out: IC50 (colony formation). On the procedure: as §1
A further assay has as its system LXFA 737. In words: Clonogenic assay, LXFA 737. The conditions noted are these: Homo sapiens, Lung, non-small cell, Adenocarcinoma, soft agar, read-out: IC50 (colony formation). As to the method:
as §1

A further assay has as its system MAXF 583. In words: Clonogenic assay, MAXF 583. The following applies: Homo sapiens, Breast, Ductual adenocarcinoma, soft agar, read-out: IC50 (colony formation). On the procedure:
as §1

In the next assay the test system is OVXF 899. In words: Clonogenic assay, OVXF 899. The following applies: Homo sapiens, Ovary, Pap. serous adenocarcinoma, soft agar, read-out: IC50 (colony formation). As to the method:
as §1

In another assay the test system is SXF 1186. Briefly: Clonogenic assay, SXF 1186. The following applies: Homo sapiens, Sarcoma, Osteoblastic osteosarcoma, soft agar, read-out: IC50 (colony formation). On the procedure: as §1
For a further assay, the system named is PC3. Briefly: Cell proliferation assay, PC3 (prostate). The following applies: Homo sapiens, PC-3, 72 hours in presence of compound. As to the method: as §2, §3
The test system of another assay is LXFS 660. In words: Clonogenic assay, LXFS 660. The conditions noted are these: Homo sapiens, Lung, small cell, Small cell lung carcinoma, soft agar, read-out: IC50 (colony formation). As to the method:
as §1

The test system of another assay is GXF 209. In words: Clonogenic assay, GXF 209. The following applies: Homo sapiens, Stomach, Signet-ring cell carcinoma, soft agar, read-out: IC50 (colony formation). On the procedure:
as §1

Another assay relates to A375m. In words: Cell proliferation assay, A375m (melanoma). The following applies: 72 hours in presence of compound. As to the method: as §2, §3
For the next assay, the system named is OPM-2. In words: Cell proliferation assay, OPM-2 (multiple myeloma). The following applies: Homo sapiens, 72 hours in presence of compound. On the procedure:
as §2, §3

Another assay concerns LXFL 1647. In words: Clonogenic assay, LXFL 1647. The following applies: Homo sapiens, Lung, non-small cell, Large cell lung carcinoma, soft agar, read-out: IC50 (colony formation). As to the method:
as §1

In another assay the test system is CXF 1729. Briefly: Clonogenic assay, CXF 1729. The following applies: Homo sapiens, Colon, Papillary adenocarcinoma, soft agar, read-out: IC50 (colony formation). As to the method: as §1
Another assay concerns BXF 1218. In words: Clonogenic assay, BXF 1218. The following applies: Homo sapiens, Bladder, Transitional cell carcinoma, soft agar, read-out: IC50 (colony formation). On the procedure:
as §1

The subject of another assay is CXF 243. In words: Clonogenic assay, CXF 243. The conditions noted are these: Homo sapiens, Colon, Adenocarcinoma, soft agar, read-out: IC50 (colony formation). On the procedure: as §1
For a further assay, the system named is BXF 1258. Briefly: Clonogenic assay, BXF 1258. The following applies: Homo sapiens, Bladder, Transitional cell carcinoma, soft agar, read-out: IC50 (colony formation). As to the method: as §1

Broadly, the IC50 is the concentration at which inhibition is half-maximal. What is called GI50 is the concentration giving 50% growth inhibition. On to `COc1cccc(-c2ccccc2[C@H]2Cc3nc(N)nc(C)c3C(=O)N2)n1` [(R)-2-amino-7-[2-(6-methoxy-pyridin-2-yl)-phenyl]-4-methyl-7,8-dihydro-6H-pyrido[4,3-d]pyrimidin-5-one], for which the IC50 was 17 nM in the assay with MEXF 989; 17 nM with PRXF DU145; above 1000 nM with MAXF 713; 12 nM with MAXF 857; 26 nM in the assay on LXFA 737; 24 nM in the assay on MAXF 583. The IC50 in the assay on OVXF 899 was above 100 nM; with SXF 1186 it was 21 nM; in the assay on LXFS 660 it was 6 nM; with GXF 209, 28 nM; with LXFL 1647, 203 nM; with CXF 1729, 199 nM. Also, the figures for the IC50 in the assay on BXF 1218, in the assay with CXF 243 and with BXF 1258 were 26 nM, 44 nM and 316 nM, respectively. For the same molecule, the GI50 amounted to 11 nM in the assay with KM12L4A; 16 nM in the assay on A549; 16 nM in the assay with PC3; 36 nM with A375m; 13 nM in the assay on OPM-2.
